For orientation: viability means a read-out of living cells in per cent, often relative to untreated cells.

Results on four compounds are retold here after US12678428B2, “Synergistic composition for inhibiting vascular calcification” (Celagenex Research (India) Pvt. Ltd., priority 2021, dated 2026).

Data set [1] is described as follows: In vitro cytotoxicity by MTT assay in HaCaT cells. The data set is classed as cell-based. The settings on record: human, HaCaT keratinocyte cells. How it is done:
The in vitro cytotoxicity was performed on Human Keratinocytes (HaCaT) cell line to find the non-toxic concentrations of the test substances by MTT assay and evaluate their cytoprotective activity against advanced glycation end product (AGE) induced oxidative stress in Human Keratinocytes.
About 10 mg of the test substance was dissolved separately with 1 mL DMEM-HG supplemented with 2% inactivated FBS to obtain a stock solution of 10 mg/mL concentration and sterilized by 0.22μ syringe filtration. Dilute the stock to desired concentrations for carrying out further studies.
HaCaT (Human Keratinocytes cells) was procured from AddexBio, U.S. Stock cells were cultured in DMEM-HG supplemented with 10% inactivated Fetal Bovine Serum (FBS), penicillin (100 IU/mL), streptomycin (100 μg/mL) and amphotericin B (5 μg/mL) in humidified atmosphere of 5% CO2 at 37° C. until confluent. The cells were dissociated with TPVG solution (0.2% trypsin, 0.02% EDTA, 0.05% glucose in PBS). The stock cultures were grown in 25 cm^2 culture flasks and all experiments were carried out in 96 microtitre plates (Tarsons India Pvt. Ltd., Kolkata, India).
The cell culture monolayer was trypsinized and the cell count was adjusted to 1.0×10^5 cells/mL using DMEM-HG containing 10% FBS. To each well of the 96 well microtitre plate, 0.1 mL of the diluted cell suspension was added. After 24 hours, when a partial monolayer was formed, the supernatant was flicked off, the monolayer was washed once with PBS and 100 μL of different concentrations of test substance was added. The plate was then incubated at 37° C. for 24 hours in a 5% CO2 atmosphere, and microscopic examination was carried out and observations were noted after 24 h time.
After 24 hours of incubation, the drug solution in the wells was discarded and 50 μL of MTT in DPBS was added to each well. The plate was gently shaken and incubated for 3 hours at 37° C. in a 5% CO2 atmosphere. The supernatant was removed and 100 μL of DMSO was added and the plate was gently shaken to solubilize the formed formazan. The absorbance was measured using a micro plate reader at a wavelength of 570 nm. The percentage growth inhibition was calculated using the standard formula. The concentration of test substance, needed to inhibit the growth of the cell by 50% i.e., CTC50 values were generated from the dose-response curves.
In general terms: Tetrazolium assays rely on reduction of a dye to a coloured formazan, in cell work by metabolically active cells.

Data set [2] deals with Human Keratinocytes cell line (HaCaT). Briefly: Cytoprotective activity against AGE (methylglyoxal) induced oxidative stress, tryphan blue dye exclusion assay. The data set is classed as cell-based. The settings on record: HaCaT cells treated with Methylglyoxal and test substance, 24 h; Metformin 5 mg; Test I 3.5 mg; Test II 0.5 mg; Test III 5 mg + 0.02 mg; Test IV 0.2 mg + 0.2 mg; Test V 3.5 mg + 0.5 mg. How it is done:
(§1) The purpose of this study is to evaluate cytoprotective activity of test substance against advanced glycation end product (AGE) induced oxidative stress in Human Keratinocytes cell line (HaCaT). About 10 mg of the test substance was dissolved separately with 1 mL DMEM-HG supplemented with 2% inactivated FBS to obtain a stock solution of 10 mg/mL concentration and sterilized by 0.22μ syringe filtration. Dilute the stock to desired concentrations for carrying out further studies. HaCaT (Human Keratinocytes cells) was procured from AddexBio, U.S. Stock cells were cultured in DMEM-HG supplemented with 10% inactivated Fetal Bovine Serum (FBS), penicillin (100 IU/mL), streptomycin (100 μg/mL) and amphotericin B (5 μg/mL) in humidified atmosphere of 5% CO2 at 37° C. until confluent. The cells were dissociated with TPVG solution (0.2% trypsin, 0.02% EDTA, 0.05% glucose in PBS). The stock cultures were grown in 25 cm^2 culture flasks and all experiments were carried out in 96 microtitre plates (Tarsons India Pvt. Ltd., Kolkata, India). [table] The monolayer cell culture was trypsinized and the cell count was adjusted to 1.5×10^5 cells/mL using DMEM-HG containing 10% FBS. To each well of the 6 well plates, 2 mL of the diluted cell suspension was added. After 24 hours, when a partial monolayer was formed, supernatant was removed and washed the monolayer once with PBS and 1 mL of different test concentrations and combinations of test substances were added. The plate was then incubated at 37° C. for 24 h in a 5% CO2 atmosphere, and microscopic examination was carried out and observations were noted after 24 hours time. After 24 hours, the media was discarded and cells were trypsinized and pelleted by centrifugation, suspended in 1 mL of fresh media and performed dye exclusion test, i.e., mixed equal volume of cells suspended media and Tryphan blue. Viable and non-viable cells were counted using haemocytometer and values were recorded, and then percentage cell viability was calculated.

Assay in data set [3]: as above
Format: cell-based, Human. The settings on record: human, HaCaT keratinocyte cells, HaCaT cells treated only with Methylglyoxal 300 μM (positive control). On the procedure:
as §1

`Cc1ncc(CO)c(CN)c1O` [2-methyl-4-aminomethyl-5-hydroxymethyl-3-Pyridinol] had a cytotoxicity at 24 h, 0.125 mg/mL in data set [1] (test concentration 0.125 mg/mL) of 4.55%. In addition, the cytotoxicity at 24 h, 0.25 mg/mL in data set [1] (test concentration 0.25 mg/mL) was 5.68%. The compound also gave a cytotoxicity at 24 h, 0.5 mg/mL in data set [1] (test concentration 0.5 mg/mL) of 25.6%. The cytotoxicity at 24 h, 1 mg/mL in data set [1] (test concentration 1 mg/mL) amounted to 63.4%. In data set [1] (test concentration 2 mg/mL), this compound registered a cytotoxicity at 24 h, 2 mg/mL of 67%. Besides, the cytotoxicity at 24 h, 3 mg/mL in data set [1] (test concentration 3 mg/mL) was determined as 67.5%. This compound registered a cytotoxicity at 24 h, 4 mg/mL in data set [1] (test concentration 4 mg/mL) of 75.8%. Moreover, the cytotoxicity at 24 h, 5 mg/mL in data set [1] (test concentration 5 mg/mL) turned out to be 76%. For the same compound, the “% Viability” value in data set [2] worked out at 41.23%.
Turning to `CN(C)C(=N)N=C(N)N` [Metformin, reference compound], in data set [2], the “% Viability” value was determined as 70.79%.
On to `CC(=O)C=O` [Methylglyoxal, reference compound], for which the viability at 24 h, 300 μM in data set [3] was ~38.8%.
Turning to `CC(=O)NCCS(=O)(=O)O.[Mg]` [Test I, Magnesium 2-acetylamino ethane sulfonic acid], the “% Viability” value in data set [2] was 42.39%.
